Results from US9938279B2, “Method for treating disease or condition susceptible to amelioration by AMPK activators and compounds of formula which are useful to activate AMP-activated protein kinase (AMPK)” (ENERGENESIS BIOMEDICAL CO., LTD, priority 2013, dated 2018).

Tests used:
AMPK [1] = assay: AMPK activation assay (western blot phospho-AMPK Thr172) in Hep G2; format: cell-based, human; details: Hep G2 cells, 30 min treatment
Procedure, shortened: (§1)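 Mouse C2C12, mouse 3T3-L1 and human Hep G2 cells in high-glucose DMEM/10% FBS were treated with compounds for 30 min, 24 h after plating. Lysates were western-blotted for phospho-AMPK (Thr172) and total AMPK, ECL-detected, and bands quantified by densitometry.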

AMPK [2] = assay: AMPK activation assay (western blot phospho-AMPK Thr172) in 3T3-L1; format: cell-based, mouse; details: 3T3-L1 cells, 30 min treatment
Procedure, shortened: as §1

AMPK [3] = assay: AMPK activation assay (western blot phospho-AMPK Thr172) in C2C12; format: cell-based, mouse; details: C2C12 cells, 30 min treatment
Procedure, shortened: as §1

Structure (SMILES) | AMPK activation (% to control) Hep G2 (AMPK [1]; 1 microM) | AMPK activation (% to control) Hep G2 (AMPK [1]; 10 microM) | AMPK activation (% to control) Hep G2 (AMPK [1]; 100 microM) | AMPK activation (% to control) Hep G2 (AMPK [1]; 200 microM) | AMPK activation (% to control) 3T3-L1 (AMPK [2]; 1 microM) | AMPK activation (% to control) 3T3-L1 (AMPK [2]; 10 microM) | AMPK activation (% to control) 3T3-L1 (AMPK [2]; 100 microM) | AMPK activation (% to control) 3T3-L1 (AMPK [2]; 200 microM) | AMPK activation (% to control) C2C12 (AMPK [3]; 1 microM) | AMPK activation (% to control) C2C12 (AMPK [3]; 10 microM) | AMPK activation (% to control) C2C12 (AMPK [3]; 100 microM) | AMPK activation (% to control) C2C12 (AMPK [3]; 200 microM)
O=c1cn[nH]c(=O)[nH]1 [Example 6-azauracil, 6-azauracil] | 108 % to control | 124 % to control | 199 % to control | 273 % to control | 109 % to control | 115 % to control | 185 % to control | 288 % to control | 109 % to control | 109 % to control | 197 % to control | 284 % to control
c1nc(NC2CCCCC2)c2[nH]cnc2n1 [Example 6-cyclohexylaminopurine, 6-cyclohexylaminopurine] | 111 % to control | 132 % to control | 261 % to control | 354 % to control | 107 % to control | 152 % to control | 269 % to control | 333 % to control | 107 % to control | 110 % to control | 248 % to control | 322 % to control
CCCCCCNc1ncnc2nc[nH]c12 [Example 6-hexylaminopurine, 6-hexylaminopurine] | 112 % to control | 148 % to control | 280 % to control | 317 % to control | 108 % to control | 111 % to control | 170 % to control | 265 % to control | 109 % to control | 123 % to control | 248 % to control | 359 % to control
Sc1ncnc2nc[nH]c12 [Example 6-mercaptopurine, 6-mercaptopurine] | 114 % to control | 122 % to control | 204 % to control | 279 % to control | 114 % to control | 128 % to control | 176 % to control | 218 % to control | 105 % to control | 119 % to control | 198 % to control | 289 % to control
CNc1ncnc2nc[nH]c12 [Example 6-methylaminopurine, 6-methylaminopurine] | 116 % to control | 141 % to control | 259 % to control | 363 % to control | 107 % to control | 129 % to control | 241 % to control | 347 % to control | 103 % to control | 108 % to control | 213 % to control | 328 % to control
Nc1nc2[nH]cnc2c(=S)[nH]1 [Example 6-thioquanine] | 116 % to control | 133 % to control | 229 % to control | 311 % to control | 115 % to control | 132 % to control | 241 % to control | 289 % to control | 116 % to control | 141 % to control | 215 % to control | 301 % to control
O=c1[nH]c(=O)n([C@H]2C[C@H](O)[C@@H](CO)O2)cc1F [Floxuridine] | 117 % to control | 147 % to control | 206 % to control | 308 % to control | 116 % to control | 141 % to control | 222 % to control | 343 % to control | 117 % to control | 144 % to control | 231 % to control | 312 % to control
Nc1nc2nc[nH]c2c(=O)[nH]1 [Guanine] | 119 % to control | 144 % to control | 199 % to control | 335 % to control | 107 % to control | 121 % to control | 208 % to control | 312 % to control | 105 % to control | 117 % to control | 241 % to control | 304 % to control
